Biological target: Breast cancer type 2 susceptibility protein/DNA repair protein RAD51 homolog 1 (Homo sapiens, UniProt P51587+Q06609)
Assay: ELISA assay
From the text: This assay is an efficient tool for directly measuring inhibition of the BRC4−Rad51 interaction, at a molecular level, which is described by Rajendra et al.

Chain of Breast cancer type 2 susceptibility protein/DNA repair protein RAD51 homolog 1 (P51587 whole entry V2466A): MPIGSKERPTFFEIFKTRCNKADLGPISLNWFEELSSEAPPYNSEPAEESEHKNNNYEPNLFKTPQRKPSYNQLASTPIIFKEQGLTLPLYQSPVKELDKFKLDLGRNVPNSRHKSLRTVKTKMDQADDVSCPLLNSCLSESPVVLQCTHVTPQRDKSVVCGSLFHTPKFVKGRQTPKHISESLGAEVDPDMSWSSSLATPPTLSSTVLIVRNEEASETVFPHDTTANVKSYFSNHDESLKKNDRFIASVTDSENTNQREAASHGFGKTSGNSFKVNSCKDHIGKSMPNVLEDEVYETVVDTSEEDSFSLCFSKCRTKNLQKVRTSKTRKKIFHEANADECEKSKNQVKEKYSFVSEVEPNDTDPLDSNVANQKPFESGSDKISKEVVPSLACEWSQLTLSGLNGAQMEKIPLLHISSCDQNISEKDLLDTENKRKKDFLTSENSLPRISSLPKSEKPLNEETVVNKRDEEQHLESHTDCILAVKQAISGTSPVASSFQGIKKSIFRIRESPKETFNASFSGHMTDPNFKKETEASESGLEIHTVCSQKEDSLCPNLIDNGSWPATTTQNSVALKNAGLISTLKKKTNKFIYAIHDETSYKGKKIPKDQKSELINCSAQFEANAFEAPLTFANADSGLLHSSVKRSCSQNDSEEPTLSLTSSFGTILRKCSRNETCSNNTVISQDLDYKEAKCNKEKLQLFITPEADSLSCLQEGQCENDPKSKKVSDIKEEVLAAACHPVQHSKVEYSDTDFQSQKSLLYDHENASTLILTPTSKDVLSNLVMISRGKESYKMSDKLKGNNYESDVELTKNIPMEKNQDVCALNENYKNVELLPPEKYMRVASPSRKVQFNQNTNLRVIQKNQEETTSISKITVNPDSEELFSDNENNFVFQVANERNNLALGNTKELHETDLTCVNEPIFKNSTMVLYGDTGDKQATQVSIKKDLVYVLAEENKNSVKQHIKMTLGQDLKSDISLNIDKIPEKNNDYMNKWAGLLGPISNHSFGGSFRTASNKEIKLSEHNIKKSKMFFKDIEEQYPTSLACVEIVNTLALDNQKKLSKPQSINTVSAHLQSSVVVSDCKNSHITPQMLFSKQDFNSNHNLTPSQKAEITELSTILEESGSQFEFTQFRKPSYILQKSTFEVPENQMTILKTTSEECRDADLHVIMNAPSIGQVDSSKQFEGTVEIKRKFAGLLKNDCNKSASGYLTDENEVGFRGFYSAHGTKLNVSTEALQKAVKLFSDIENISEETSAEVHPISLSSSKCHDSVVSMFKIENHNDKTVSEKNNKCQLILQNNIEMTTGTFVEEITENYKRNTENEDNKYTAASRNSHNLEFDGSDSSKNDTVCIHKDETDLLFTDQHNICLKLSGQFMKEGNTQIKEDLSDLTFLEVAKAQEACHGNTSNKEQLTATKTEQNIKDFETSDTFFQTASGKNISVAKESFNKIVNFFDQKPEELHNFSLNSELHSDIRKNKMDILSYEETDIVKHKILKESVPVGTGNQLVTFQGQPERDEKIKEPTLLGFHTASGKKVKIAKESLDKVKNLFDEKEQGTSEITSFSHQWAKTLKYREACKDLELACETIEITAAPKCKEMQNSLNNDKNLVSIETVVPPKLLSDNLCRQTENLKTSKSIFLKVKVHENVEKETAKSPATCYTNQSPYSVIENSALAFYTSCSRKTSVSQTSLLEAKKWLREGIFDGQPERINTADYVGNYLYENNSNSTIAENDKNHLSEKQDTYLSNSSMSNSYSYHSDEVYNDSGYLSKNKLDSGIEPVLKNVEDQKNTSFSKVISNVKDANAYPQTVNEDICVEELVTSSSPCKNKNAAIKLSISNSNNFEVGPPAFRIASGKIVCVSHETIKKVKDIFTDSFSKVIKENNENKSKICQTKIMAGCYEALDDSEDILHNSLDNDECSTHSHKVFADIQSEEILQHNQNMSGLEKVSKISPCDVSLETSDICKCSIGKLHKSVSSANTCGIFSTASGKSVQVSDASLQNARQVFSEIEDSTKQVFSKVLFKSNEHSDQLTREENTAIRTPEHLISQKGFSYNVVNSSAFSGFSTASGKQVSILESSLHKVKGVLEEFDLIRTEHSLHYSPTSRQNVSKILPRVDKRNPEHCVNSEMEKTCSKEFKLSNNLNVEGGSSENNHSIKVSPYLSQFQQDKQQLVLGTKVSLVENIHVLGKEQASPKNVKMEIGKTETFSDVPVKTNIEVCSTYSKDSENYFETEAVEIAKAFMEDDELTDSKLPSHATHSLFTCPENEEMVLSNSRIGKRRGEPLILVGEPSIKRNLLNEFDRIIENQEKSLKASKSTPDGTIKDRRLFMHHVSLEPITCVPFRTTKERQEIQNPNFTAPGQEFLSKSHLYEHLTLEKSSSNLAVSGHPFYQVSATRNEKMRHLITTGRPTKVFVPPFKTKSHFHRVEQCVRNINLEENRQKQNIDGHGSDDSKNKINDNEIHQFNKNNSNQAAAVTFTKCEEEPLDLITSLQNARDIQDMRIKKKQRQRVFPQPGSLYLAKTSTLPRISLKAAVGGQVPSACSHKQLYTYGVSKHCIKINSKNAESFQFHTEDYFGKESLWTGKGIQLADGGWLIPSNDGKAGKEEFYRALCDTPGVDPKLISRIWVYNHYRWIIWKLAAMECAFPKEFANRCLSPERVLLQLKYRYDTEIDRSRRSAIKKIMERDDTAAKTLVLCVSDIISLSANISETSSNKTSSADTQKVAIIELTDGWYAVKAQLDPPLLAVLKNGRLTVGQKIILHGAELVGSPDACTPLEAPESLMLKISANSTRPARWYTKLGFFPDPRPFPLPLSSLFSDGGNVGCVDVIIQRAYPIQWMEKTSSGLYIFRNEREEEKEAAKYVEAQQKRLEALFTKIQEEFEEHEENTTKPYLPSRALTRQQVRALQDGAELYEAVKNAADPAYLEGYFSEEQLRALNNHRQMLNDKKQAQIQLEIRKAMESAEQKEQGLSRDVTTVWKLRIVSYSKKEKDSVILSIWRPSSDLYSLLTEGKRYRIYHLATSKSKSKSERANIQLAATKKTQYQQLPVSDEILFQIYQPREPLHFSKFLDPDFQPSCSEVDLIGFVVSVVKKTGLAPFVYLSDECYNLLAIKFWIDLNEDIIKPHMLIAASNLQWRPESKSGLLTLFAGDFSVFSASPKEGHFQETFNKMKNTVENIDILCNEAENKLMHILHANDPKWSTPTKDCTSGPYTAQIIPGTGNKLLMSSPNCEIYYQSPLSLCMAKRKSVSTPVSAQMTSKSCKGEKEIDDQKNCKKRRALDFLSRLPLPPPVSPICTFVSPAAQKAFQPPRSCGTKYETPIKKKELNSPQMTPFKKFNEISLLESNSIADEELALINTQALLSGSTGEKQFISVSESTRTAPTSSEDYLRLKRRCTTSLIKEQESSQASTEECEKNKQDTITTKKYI
Chain of Breast cancer type 2 susceptibility protein/DNA repair protein RAD51 homolog 1 (Q06609 whole entry): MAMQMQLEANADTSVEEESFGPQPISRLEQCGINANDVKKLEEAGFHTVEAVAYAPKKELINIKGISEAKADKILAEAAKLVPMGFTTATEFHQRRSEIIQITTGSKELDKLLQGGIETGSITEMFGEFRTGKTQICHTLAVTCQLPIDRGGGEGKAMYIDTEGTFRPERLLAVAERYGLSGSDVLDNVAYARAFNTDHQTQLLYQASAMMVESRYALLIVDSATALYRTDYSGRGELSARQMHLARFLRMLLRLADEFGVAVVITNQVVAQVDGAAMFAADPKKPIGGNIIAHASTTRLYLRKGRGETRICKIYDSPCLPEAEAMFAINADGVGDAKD

EC50 [µM]	Compound
53	O=C(CSc1nnc(Cn2c(=O)sc3ccccc32)n1CCc1ccccc1)NC1CCCC1 [F0665-0303]
25	O=C(CSc1nnc(Cn2c(=O)sc3ccccc32)n1CCCc1ccccc1)NC1CCCC1 [N-cyclopentyl-2-((5-((2-oxobenzo[d]thiazol-3(2H)-yl)methyl)-4-phenpropyl-4H-1,2,4-triazol-3-yl)thio)acetamide]
